According to PMC5072426, “Inhibition of cathepsin B by caspase-3 inhibitors blocks programmed cell death in Arabidopsis” (Cell Death and Differentiation, 2016):
Peptide text beside a SMILES is read from it.

Target: T1, recombinant AtCathB3 (Arabidopsis cathepsin B3) (Arabidopsis thaliana, UniProt Q94K85)
T1 construct: gene CATHB3; 25-residue signal peptide removed; N-terminal cherrytag (11 kDa), C-terminal 6xHis; secreted from baculovirus-infected insect cells (Sf9/Hi-5); N-glycosylated
T1 sequence (Q94K85 26-359): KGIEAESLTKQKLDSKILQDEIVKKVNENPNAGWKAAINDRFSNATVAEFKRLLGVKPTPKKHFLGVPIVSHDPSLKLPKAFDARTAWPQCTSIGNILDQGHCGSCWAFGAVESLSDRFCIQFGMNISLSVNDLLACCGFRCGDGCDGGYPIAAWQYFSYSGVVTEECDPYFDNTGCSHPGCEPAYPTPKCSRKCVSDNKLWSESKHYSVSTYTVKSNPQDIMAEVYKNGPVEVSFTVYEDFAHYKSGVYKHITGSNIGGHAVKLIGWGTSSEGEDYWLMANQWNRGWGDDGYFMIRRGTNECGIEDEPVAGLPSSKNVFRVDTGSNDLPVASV
Test: fluorogenic DEVDase assay, inhibitor pre-incubated […] min
Type: biochemical

| remaining activity at 100 µM | remaining activity at 1000 µM | Structure (SMILES) |
| --- | --- | --- |
| 0.3% |  | CC(C)[C@H](NC(=O)[C@H](CCC(=O)O)NC(=O)[C@H](CC(=O)O)NC(=O)OCc1ccccc1)C(=O)N[C@H](C=O)CC(=O)O [DEVD-CHO, Z-DEVD-CHO] |
|  | 0% | CCCNC(=O)[C@H]1O[C@@H]1C(=O)N[C@H](C(=O)N1CCC[C@H]1C(=O)O)[C@@H](C)CC [CA-074] |
| 0% |  | CC(=O)N[C@@H](CC(C)C)C(=O)N[C@H](C(=O)N[C@H](C=O)CCCCN)C(C)C [LVK-CHO, Ac-LVK-CHO] (Ac-Leu-Val-Lys-aldehyde) |
| 43.3 ± 0.6% |  | CC(=O)N[C@@H](Cc1ccc(O)cc1)C(=O)N[C@H](C(=O)N[C@@H](C)C(=O)N[C@H](C=O)CC(=O)O)C(C)C [YVAD-CHO, Ac-YVAD-CHO] |
